System: 317291-083-R-J1-PDC complex spheroids, viability
Test: Anticancer human tumor 317291-083-R-J1-PDC patient-derived soft tissue sarcoma cell line growth inhibition [GQUAD]
Details: for IC50: curve of first compound; for viability, T/C: stronger effect = lower value
Method in brief: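 Multi-cell-type spheroids of tumor cells with HUVEC and mesenchymal stem cells, treated with drug combinations. Concentrations descend in half-log steps from near clinical Cmax, or from 10 microM where Cmax is unknown; viability read-out.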

[1] = second compound 0.0316 µM, first compound 0.0316 µM
[2] = second compound 0.0316 µM, first compound 0.1 µM
[3] = second compound 0.0316 µM, first compound 0.316 µM
[4] = second compound 0.0316 µM, first compound 1 µM
[5] = second compound 0.0316 µM, first compound 3.16 µM
[6] = second compound 0.0316 µM, first compound 10 µM
[7] = second compound 0.1 µM, first compound 0.0316 µM
[8] = second compound 0.1 µM, first compound 0.1 µM
[9] = second compound 0.1 µM, first compound 0.316 µM
[10] = second compound 0.1 µM, first compound 1 µM
[11] = second compound 0.1 µM, first compound 3.16 µM
[12] = second compound 0.1 µM, first compound 10 µM
[13] = second compound 0.316 µM, first compound 0.0316 µM
[14] = second compound 0.316 µM, first compound 0.1 µM
[15] = second compound 0.316 µM, first compound 0.316 µM
[16] = second compound 0.316 µM, first compound 1 µM
[17] = second compound 0.316 µM, first compound 3.16 µM
[18] = second compound 0.316 µM, first compound 10 µM
[19] = second compound 1 µM, first compound 0.0316 µM
[20] = second compound 1 µM, first compound 0.1 µM
[21] = second compound 1 µM, first compound 0.316 µM
[22] = second compound 1 µM, first compound 1 µM
[23] = second compound 1 µM, first compound 3.16 µM
[24] = second compound 1 µM, first compound 10 µM
[25] = second compound 3.16 µM, first compound 0.0316 µM
[26] = second compound 3.16 µM, first compound 0.1 µM
[27] = second compound 3.16 µM, first compound 0.316 µM
[28] = second compound 3.16 µM, first compound 1 µM
[29] = second compound 3.16 µM, first compound 3.16 µM
[30] = second compound 3.16 µM, first compound 10 µM
[31] = second compound 10 µM, first compound 0.0316 µM
[32] = second compound 10 µM, first compound 0.1 µM
[33] = second compound 10 µM, first compound 0.316 µM
[34] = second compound 10 µM, first compound 1 µM
[35] = second compound 10 µM, first compound 3.16 µM
[36] = second compound 10 µM, first compound 10 µM
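Further: spheroids exposed to compounds for one week before readout.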
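Wherever viability, T/C is given: percent viability relative to DMSO vehicle wells taken as 100%.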

CC(=O)O[C@H]1C(=O)[C@@]2(C)[C@H]([C@H](OC(=O)c3ccccc3)[C@]3(O)C[C@H](OC(=O)[C@H](O)[C@@H](NC(=O)c4ccccc4)c4ccccc4)C(C)=C1C3(C)C)[C@]1(OC(C)=O)CO[C@@H]1C[C@@H]2O + CN(C)c1ccc(Nc2c3ccc(NC(=O)CCN4CCCC4)cc3nc3cc(NC(=O)CCN4CCCC4)ccc23)cc1
IC50 (second compound 0.0316 µM): < 31.6 nM | IC50 (second compound 0.1 µM): < 31.6 nM | IC50 (second compound 0.316 µM): < 31.6 nM | IC50 (second compound 1 µM): < 31.6 nM | IC50 (second compound 3.16 µM): < 31.6 nM | IC50 (second compound 10 µM): < 31.6 nM | viability, T/C [1]: 46.5% | viability, T/C [2]: 17% | viability, T/C [3]: 12.4% | viability, T/C [4]: 14.7% | viability, T/C [5]: 11.4% | viability, T/C [6]: 12.4% | viability, T/C [7]: 39.5% | viability, T/C [8]: 13.6% | viability, T/C [9]: 12.5% | viability, T/C [10]: 12.2% | viability, T/C [11]: 10.4% | viability, T/C [12]: 10.6% | viability, T/C [13]: 25.9% | viability, T/C [14]: 14% | viability, T/C [15]: 9.98% | viability, T/C [16]: 8.69% | viability, T/C [17]: 10.2% | viability, T/C [18]: 9.42% | viability, T/C [19]: 21.7% | viability, T/C [20]: 6.55% | viability, T/C [21]: 5.24% | viability, T/C [22]: 7.99% | viability, T/C [23]: 6.09% | viability, T/C [24]: 6.28% | viability, T/C [25]: 9.14% | viability, T/C [26]: 0.56% | viability, T/C [27]: 0.37% | viability, T/C [28]: 0.6% | viability, T/C [29]: 1.62% | viability, T/C [30]: 0.92% | viability, T/C [31]: 0.91% | viability, T/C [32]: 0.27% | viability, T/C [33]: 0.18% | viability, T/C [34]: 0.29% | viability, T/C [35]: 0.25% | viability, T/C [36]: 0.23%

CC1COCCN1c1cc(-c2ccnn2C)c2ccnc(-c3ccn[nH]3)c2n1 (centres undefined) + Cc1cnc(CNC(=O)c2c(=O)c3ccc(N4CCCN(C)CC4)nc3n3c2sc2ccccc23)cn1
IC50 (second compound 0.0316 µM): < 31.6 nM | IC50 (second compound 0.1 µM): 39.5 nM | IC50 (second compound 0.316 µM): < 31.6 nM | IC50 (second compound 1 µM): < 31.6 nM | IC50 (second compound 3.16 µM): < 31.6 nM | IC50 (second compound 10 µM): < 31.6 nM | viability, T/C [1]: 49.6% | viability, T/C [2]: 19.1% | viability, T/C [3]: 13% | viability, T/C [4]: 10.9% | viability, T/C [5]: 23.9% | viability, T/C [6]: 12.7% | viability, T/C [7]: 59% | viability, T/C [8]: 12.5% | viability, T/C [9]: 9.96% | viability, T/C [10]: 15.6% | viability, T/C [11]: 11.6% | viability, T/C [12]: 11.4% | viability, T/C [13]: 35.6% | viability, T/C [14]: 14.6% | viability, T/C [15]: 12.3% | viability, T/C [16]: 11% | viability, T/C [17]: 13.2% | viability, T/C [18]: 16.6% | viability, T/C [19]: 25.1% | viability, T/C [20]: 25.1% | viability, T/C [21]: 11.3% | viability, T/C [22]: 9.59% | viability, T/C [23]: 20.1% | viability, T/C [24]: 11.5% | viability, T/C [25]: 11.3% | viability, T/C [26]: 8.19% | viability, T/C [27]: 9.69% | viability, T/C [28]: 12.1% | viability, T/C [29]: 17.1% | viability, T/C [30]: 11.5% | viability, T/C [31]: 11.8% | viability, T/C [32]: 11.6% | viability, T/C [33]: 13.7% | viability, T/C [34]: 8.98% | viability, T/C [35]: 11.4% | viability, T/C [36]: 18.6%

Reference: PubChem BioAssay AID2060497 (Molecular Pharmacology Branch, DTP, NCI, 2025)
